Laboratory results taken from article PMC7221574 (Molecules, 2020).
Where two headings read alike, the source gives them in different places.

How the values were obtained:
A549 = assay: In vitro antiproliferative activity, SRB assay, A549; assay type: cell-based, human; details: for IC50: human lung adenocarcinoma, 72 h, SRB, mean ± SD
Description: (§1) The A549 cell line was purchased from the European Collection of Authenticated Cell Cultures (ECACC, Salisbury, UK). The MCF-7, LoVo and LoVo/DX cell lines was purchased from American Type Culture Collection (ATCC, Manassas, VA, USA). All the cell lines are maintained in the Institute of Immunology and Experimental Therapy (IIET), Wroclaw, Poland.
(§2) Human lung adenocarcinoma cell line was cultured in a mixture of OptiMEM and RPMI 1640 (1:1) medium (IIET, Wroclaw, Poland), supplemented with 5% fetal bovine serum HyClone (GE Healthcare, USA) and 2 mM L-glutamine (Sigma-Aldrich, Germany). Human breast adenocarcinoma cell line was cultured in a mixture of Eagle medium (IIET, Wroclaw, Poland), supplemented with 10% fetal bovine serum, 2 mM L-glutamine, 8 μg/mL insulin and 1% amino acids (Sigma-Aldrich, Germany). Human colon adenocarcinoma cell lines were cultured in a mixture of OptiMEM and RPMI 1640 (1:1) medium (IIET, Wroclaw, Poland), supplemented with 5% fetal bovine serum HyClone (GE Healthcare, USA), 2 mM L-glutamine, 1 mM sodium pyruvate (Sigma-Aldrich, Germany) and 10 μg/100 mL doxorubicin (Accord) for LoVo/DX. Murine embryonic fibroblast cells were cultured in Dulbecco medium (Gibco), supplemented with 10% fetal bovine serum (GE Healthcare, USA) and 2 mM L-glutamine (Sigma-Aldrich, Germany). All culture media contained antibiotics: 100 U/mL penicillin (Polfa-Tarchomin, Poland) and 0.1 mg/mL streptomycin (Sigma Aldrich, Germany). All cell lines were cultured during entire experiment in humid atmosphere at 37 °C and 5% CO2.
(§3) All cell lines were exposed to each tested agent at different concentrations in the range 100–0.001 μg/mL for 72 h. The cells were also exposed to the reference drug cisplatin (Teva Pharmaceuticals, Poland) and doxorubicin (Accord Healthcare Limited, UK). Additionally, all cell lines were exposed to DMSO (solvent used for tested compounds) (POCh, Poland) at concentrations corresponding to those present in dilutions of tested agents. After 72 h sulforhodamine B assay (SRB) was performed.
(§4) After 72 h of incubation with the tested compounds, the cells were fixed in situ by gently adding of 50 μL per well of cold 50% trichloroacetic acid TCA (POCh, Poland) and were incubated at room temperature for one hour. Then the wells were washed four times with water and air dried. Next, 50 μL of 0.1% solution of sulforhodamine B (Sigma-Aldrich, Germany) in 1% acetic acid (POCh, Poland) were added to each well and were incubated at room temperature for 0.5 h. After incubation time, unbound dye was removed by washing plates four times with 1% acetic acid, whereas the stain bound to cells was solubilized with 150 μL of 10 mM Tris base (Sigma-Aldrich, Germany). Absorbance of each solution was read from a Synergy H4 Hybrid Multi-Mode Microplate Reader (BioTek Instruments, USA) at the 540 nm wavelength.

MCF-7 = assay: In vitro antiproliferative activity, SRB assay, MCF-7; assay type: cell-based, human; details: for IC50: human breast adenocarcinoma, 72 h, SRB, mean ± SD
Description: as §1, §2, §3, §4

LoVo = assay: In vitro antiproliferative activity, SRB assay, LoVo; assay type: cell-based, human; details: for IC50: 72 h, human colon adenocarcinoma, SRB, mean ± SD; for selectivity index (SI) LoVo: SI = (IC50 BALB/3T3)/(IC50 LoVo)
Description: as §1, §2, §3, §4

LoVo/DX = assay: cells; assay type: cell-based, human; details: for IC50: Homo sapiens, LoVo/DX, 72 h, read-out: IC50 LoVo/DX; for RI (resistance index): RI = (IC50 for LoVo/DX)/(IC50 for LoVo)
Description: as §1, §2, §3, §4

BALB/3T3 = assay: In vitro antiproliferative activity, SRB assay, normal fibroblasts BALB/3T3; assay type: cell-based, murine; details: for IC50: Mus musculus, BALB/3T3, normal murine embryonic fibroblasts, 72 h, SRB, mean ± SD
Description: as §1, §2, §3, §4

SMILES | IC50 (A549; Homo sapiens, A549, 72 h) | IC50 (MCF-7; Homo sapiens, MCF7, 72 h) | IC50 (LoVo; Homo sapiens, LoVo) | IC50 (LoVo/DX) | RI (resistance index) (LoVo/DX) | IC50 (BALB/3T3) | IC50 (A549) | IC50 (MCF-7) | IC50 (LoVo) | IC50 (LoVo/DX; doxorubicin-resistant colon adenocarcinoma subline, SRB, mean ± SD) | selectivity index (SI) A549 (A549; SI = (IC50 BALB/3T3)/(IC50 A549)) | selectivity index (SI) MCF-7 (MCF-7; SI = (IC50 BALB/3T3)/(IC50 MCF-7)) | selectivity index (SI) LoVo (LoVo) | selectivity index (SI), cancer cell lines not named at the place (BALB/3T3; SI = (IC50 BALB/3T3)/(IC50 respective cancerous cell line), range over several lines) | times more potent than unmodified colchicine 1 (LoVo/DX; LoVo/DX line)
CNc1ccc2c(cc1=O)[C@@H](NC(C)=O)CCc1cc(OC)c(OC)c(OC)c1-2 [Compound 2, 10-methylamino-10-demethoxycolchicine] | 10.8 ± 1.3 nM | 8.6 ± 1.3 nM | 4.3 ± 1.3 nM | 271 ± 99.9 nM | 63.0 | 10.8 ± 1.3 nM | – | – | – | – | – | – | – | – | –
CNc1ccc2c(cc1=O)[C@@H](N)CCc1cc(OC)c(OC)c(OC)c1-2 [Compound 3, N-deacetyl-10-methylamino-10-demethoxycolchicine] | < 20 nM | < 20 nM | < 20 nM | 129 ± 11.8 nM | 9.2 | 19.7 ± 7 nM | 16.9 ± 2.8 nM | 19.7 ± 1.7 nM | 14 ± 1.7 nM | – | – | – | – | – | –
CCC(=O)NC1CCc2cc(OC)c(OC)c(OC)c2-c2ccc(NC)c(=O)cc21 (stereo not shown) [Compound 4] | 14.6 ± 2.4 nM | 14.6 ± 1.5 nM | 9.7 ± 1.5 nM | 272 ± 104 nM | 28.0 | 19.4 ± 4.1 nM | – | – | – | – | – | – | – | – | –
CNc1ccc2c(cc1=O)[C@@H](NC(=O)c1cccnc1)CCc1cc(OC)c(OC)c(OC)c1-2 [Compound 15] | 36.8 ± 12.1 nM | 13 ± 2.2 nM | 10.8 ± 1.3 nM | 832 ± 293 nM | 76.8 | 43.3 ± 29.7 nM | – | – | – | – | – | – | – | – | –
CNc1ccc2c(cc1=O)[C@@H](NC(=O)c1ccncc1)CCc1cc(OC)c(OC)c(OC)c1-2 [Compound 16] | 17.3 ± 3.7 nM | 12.8 ± 0.9 nM | 10.8 ± 1.3 nM | 947 ± 260 nM | 87.4 | 52 ± 29.3 nM | – | – | – | – | – | – | – | – | –
COc1cccc2c1C(=O)c1c(O)c3c(c(O)c1C2=O)C[C@@](O)(C(=O)CO)C[C@@H]3O[C@H]1C[C@H](N)[C@H](O)[C@H](C)O1 [Doxorubicin, reference compound] | 142 ± 46 nM | 204 ± 47.8 nM | 99.4 ± 41 nM | – | 87.9 | 149 ± 127 nM | – | – | – | 8730 ± 2540 nM | – | – | – | – | –
CNc1ccc2c(cc1=O)C(NC(=O)CCC(F)(F)F)CCc1cc(OC)c(OC)c(OC)c1-2 (stereo not shown) [Compound 11, 4,4,4-trifluorobutyric amide of 10-N-methylaminocolchicine] | 10.4 to 14.6 nM | 10.4 to 14.6 nM | 10.4 to 14.6 nM | 290 ± 165 nM | 27.8 | 81.3 ± 20.4 nM | 14.6 ± 2.1 nM | 12.7 ± 0.4 nM | 10.4 ± 1.3 nM | – | higher than 5 | higher than 5 | higher than 5 | 5.6–7.8 | –
CCCC(=O)N[C@H]1CCc2cc(OC)c(OC)c(OC)c2-c2ccc(NC)c(=O)cc21 [Compound 5] | 14.1 ± 2.4 nM | 14.1 ± 1.4 nM | 9.6 ± 0.5 nM | 195 ± 51.9 nM | 20.2 | 16.4 ± 3.5 nM | – | – | – | – | – | – | – | – | –
CNc1ccc2c(cc1=O)C(NC(=O)CCl)CCc1cc(OC)c(OC)c(OC)c1-2 (stereo not shown) [Compound 9] | 11.6 ± 2.8 nM | 9.2 ± 1.4 nM | 1.8 ± 0.4 nM | 62.4 ± 6.7 nM | 35.2 | 11.6 ± 2.3 nM | – | – | – | – | – | – | over 6 | – | –
CNc1ccc2c(cc1=O)[C@@H](NC(=O)c1ccccc1Cl)CCc1cc(OC)c(OC)c(OC)c1-2 [Compound 13] | 6.3 ± 3.2 nM | 9.2 ± 0.8 nM | 0.7 ± 0.1 nM | 9.6 ± 3.3 nM | 14.0 | 6.2 ± 1.6 nM | – | – | – | – | – | – | over 6 | – | approx. 170 times
CNc1ccc2c(cc1=O)[C@@H](NS(=O)(=O)c1ccc(C(F)(F)F)cc1)CCc1cc(OC)c(OC)c(OC)c1-2 [Compound 21] | 85.5 ± 5.4 nM | 134 ± 41.5 nM | 73.5 ± 15.7 nM | 6120 ± 825 nM | 83.3 | 87.6 ± 13.5 nM | – | – | – | – | – | – | – | – | –
